Species: Rattus norvegicus
Assay: DrugMatrix - Regimen: Daily Repeat
Assay type: toxicity, organism-based, Sprague-Dawley
Design: regimen Daily Repeat, gender Male, age 6-8 weeks
Settings: in vivo, po, route oral GAVAGE, vehicle .5 % CMC; for BASOPHIL / EOSINOPHIL / ERYTHROCYTE COUNT / HEMATOCRIT / HEMOGLOBIN / LEUKOCYTE COUNT / LYMPHOCYTE / MEAN CORPUSCULAR HEMOGLOBIN / MEAN CORPUSCULAR HEMOGLOBIN CONCENTRATION / MEAN CORPUSCULAR VOLUME / MONOCYTE / NEUTROPHIL / PLATELET COUNT: tissue Blood; for ALANINE AMINOTRANSFERASE / ALBUMIN / ALKALINE PHOSPHATASE / ASPARTATE AMINOTRANSFERASE / BLOOD UREA NITROGEN / CHLORIDE / CHOLESTEROL / CREATINE PHOSPHOKINASE / CREATININE / GLUCOSE / PHOSPHORUS / POTASSIUM / SODIUM / TOTAL BILIRUBIN / TOTAL PROTEIN: tissue Plasma
[1] = 0 mg/kg, 72 h, dose level Control, time 3 day
[2] = 0 mg/kg, 120 h, dose level Control, time 5 day
[3] = 750 mg/kg, 72 h, dose level Low, time 3 day

For `NCC(=O)O` [GLYCINE], the BASOPHIL [1] was 0%, the EOSINOPHIL [1] was 0% and the “ERYTHROCYTE COUNT” value [1] was 6.34 x10E6/uL. For the same compound, the HEMATOCRIT [1] was 37.62%, the HEMOGLOBIN [1] was 14.82 G/DL and the “LEUKOCYTE COUNT” value [1] was 11.18 x10E3/uL. For the same compound, the LYMPHOCYTE [1] was 87.5%, the “MEAN CORPUSCULAR HEMOGLOBIN” value [1] was 23.48 pg and the “MEAN CORPUSCULAR HEMOGLOBIN CONCENTRATION” value [1] was 39.5 G/DL. For the same compound, the “MEAN CORPUSCULAR VOLUME” value [1] was 59.45 fL, the MONOCYTE [1] was 1.67% and the NEUTROPHIL [1] was 10.83%. The “PLATELET COUNT” value [1] was 1074.83 x10E3/uL, the “ALANINE AMINOTRANSFERASE” value [1] was 36.5 u/L and the ALBUMIN [1] was 3.9 G/DL. For the same compound, the “ALKALINE PHOSPHATASE” value [1] was 370.17 u/L, the “ASPARTATE AMINOTRANSFERASE” value [1] was 63.17 u/L and the “BLOOD UREA NITROGEN” value [1] was 16.83 mg/dL. The CHLORIDE [1] was 99.33 MEQ/L, the CHOLESTEROL [1] was 64.33 mg/dL and the “CREATINE PHOSPHOKINASE” value [1] was 127 u/L. For the same compound, the CREATININE [1] was 0.55 mg/dL, the GLUCOSE [1] was 173.5 mg/dL and the PHOSPHORUS [1] was 10.08 mg/dL. For the same compound, the POTASSIUM [1] was 6.23 MEQ/L, the SODIUM [1] was 143.5 MEQ/L and the “TOTAL BILIRUBIN” value [1] was 0.52 mg/dL. The “TOTAL PROTEIN” value [1] was 6.35 G/DL, the BASOPHIL [2] was 0% and the EOSINOPHIL [2] was 0.17%. For the same compound, the “ERYTHROCYTE COUNT” value [2] was 6.12 x10E6/uL, the HEMATOCRIT [2] was 37.08% and the HEMOGLOBIN [2] was 14.82 G/DL. For the same compound, the “LEUKOCYTE COUNT” value [2] was 11.87 x10E3/uL, the LYMPHOCYTE [2] was 83.33% and the “MEAN CORPUSCULAR HEMOGLOBIN” value [2] was 24.25 pg. The “MEAN CORPUSCULAR HEMOGLOBIN CONCENTRATION” value [2] was 39.97 G/DL, the “MEAN CORPUSCULAR VOLUME” value [2] was 60.65 fL and the MONOCYTE [2] was 1.5%. The NEUTROPHIL [2] was 15%, the “PLATELET COUNT” value [2] was 1042.83 x10E3/uL and the “ALANINE AMINOTRANSFERASE” value [2] was 46 u/L. The ALBUMIN [2] was 3.82 G/DL, the “ALKALINE PHOSPHATASE” value [2] was 369.5 u/L and the “ASPARTATE AMINOTRANSFERASE” value [2] was 65 u/L. The “BLOOD UREA NITROGEN” value [2] was 16.33 mg/dL, the CHLORIDE [2] was 100.67 MEQ/L and the CHOLESTEROL [2] was 57.17 mg/dL. The “CREATINE PHOSPHOKINASE” value [2] was 130 u/L, the CREATININE [2] was 0.53 mg/dL and the GLUCOSE [2] was 163.33 mg/dL. It also gave a PHOSPHORUS [2] of 9.53 mg/dL, a POTASSIUM [2] of 6.27 MEQ/L and an SODIUM [2] of 144.83 MEQ/L. For the same compound, the “TOTAL BILIRUBIN” value [2] was 0.55 mg/dL, the “TOTAL PROTEIN” value [2] was 6.32 G/DL and the BASOPHIL [3] was 0%. The EOSINOPHIL [3] was 0%, the “ERYTHROCYTE COUNT” value [3] was 6.2 x10E6/uL and the HEMATOCRIT [3] was 37.37%. The HEMOGLOBIN [3] was 14.17 G/DL, the “LEUKOCYTE COUNT” value [3] was 11.6 x10E3/uL and the LYMPHOCYTE [3] was 90%. The “MEAN CORPUSCULAR HEMOGLOBIN” value [3] was 22.83 pg, the “MEAN CORPUSCULAR HEMOGLOBIN CONCENTRATION” value [3] was 37.97 G/DL and the “MEAN CORPUSCULAR VOLUME” value [3] was 60.17 fL. The MONOCYTE [3] was 0%, the NEUTROPHIL [3] was 10% and the “PLATELET COUNT” value [3] was 1191.67 x10E3/uL. For the same compound, the “ALANINE AMINOTRANSFERASE” value [3] was 28 u/L, the ALBUMIN [3] was 3.4 G/DL and the “ALKALINE PHOSPHATASE” value [3] was 270.33 u/L. The “ASPARTATE AMINOTRANSFERASE” value [3] was 46.67 u/L, the “BLOOD UREA NITROGEN” value [3] was 9 mg/dL and the CHLORIDE [3] was 102.33 MEQ/L. The CHOLESTEROL [3] was 55.33 mg/dL, the “CREATINE PHOSPHOKINASE” value [3] was 104.33 u/L and the CREATININE [3] was 0.4 mg/dL. For the same compound, the GLUCOSE [3] was 165 mg/dL, the PHOSPHORUS [3] was 10.73 mg/dL and the POTASSIUM [3] was 6.07 MEQ/L. The SODIUM [3] was 148 MEQ/L, the “TOTAL BILIRUBIN” value [3] was 0.17 mg/dL and the “TOTAL PROTEIN” value [3] was 5.43 G/DL.
